Source: patent publication US4163844A, “Nitrogen-containing heterocyclic compounds” (Yamanouchi Pharmaceutical Co., Ltd., priority 1976, dated 1979)

What was measured:
[1] = test system: acetic acid-induced writhings; experiment: Whittle's method: acetic acid-induced writhings; format: in vivo, Male ICR-Mice
Experimental: (§1) Male ICR-Mice (weighting 25-35 g.), one group being 12 mice, fasted overnight were used in this test. The sample was orally administered, and 20 minutes after, 5 ml./Kg. of 0.4% Evance blue was injected intravenously and further 10 minutes after, 10 ml./Kg. of 0.6% acetic acid was injected intraperitoneally. The number of writhings after 20 minutes since the administration of acetic acid was recorded and further 10 minutes after since then, the mice were killed by dislocation of the neck, the dye leaked in the abdominal cavity was washed out with 5 ml. of 0.9% saline to make the total amount 10 ml., and thereafter furs, blood corpuscles, etc., intermingled were removed by centrifugal separation at 3,000 r.p.m. for 5 minutes. Furthermore, for preventing turbidity caused by protein, 0.1 ml. of an aqueous 0.1 normal sodium hydroxide was added and then the absorbance at 590 nm was measured. The inhibition ratio of the sample administered rat groups to control groups was calculated.
(§2) In addition, the test samples used in the aforesaid tests (a), (b), (c) and (d) were prepared by suspending the test compounds, in the cases of using the compounds of Test Nos. 1-12 and phenylbutazone, in an aqueous 0.5% methyl cellulose solution, dissolving the test compounds, in the cases of using aminopyrine, in distilled water.

[2] = test system: Carrageenin-induced edema; experiment: Carrageenin-induced edema (Winter's method); format: in vivo, Male Wister rats; details: oral, one hour before carrageenin, edema 3 hours after injection
Experimental: Male Wister rats (weighting 130-170 g.), one group being 6 rats, fasted overnight were used. According to Winter's method [Proc. Soc. […] After 3 hours, each rat was sacrificed by chloroform and the hind paw was cut and weighed immediately. By using the value obtained by subtracting the weight of the untreated hind paw from the weight of the hind paw having injected thereto the carrageenin as the weight of edema, the inhibitory ratio of the sample administered rat groups to control groups was calculated. The sample was orally administered before one hour of the injection of carrageenin.
as §2

[3] = test system: Permeability (dye leakage into abdominal cavity); experiment: Whittle's method: permeability (dye leaked in the abdominal cavity); format: in vivo, Male ICR-Mice
Experimental: as §1, §2

[4] = test system: Hyperthermia caused by Brewer's yeast; experiment: Antipyretic effect (Brewer's yeast hyperthermia); format: in vivo, Male Wister rats; design: key: rectal body temperature in °C; details: in °C (unit assumed)
Experimental: Male Wister rats (weighting 130-150 g.), one group being 5 rats, were used. Hyperthermia was caused by subcutaneous injection of 2 ml./rat of 20% Brewer's yeast suspension. 18 hours later, the rats showing a rise in temperature exceeding 1° C. were selected and allocated into groups each consisting of 5 rats. The sample was orally administered and then the body temperature was measured with the passage of time for 6 hours since then. In addition, the body temperature was measured by measuring the temperature in the rectum by means of a thermister thermometer.
as §2

Acute toxicity = format: in vivo, Male Wister rats; details: 500 mg/kg oral, observed 7 days; deaths/animals
Experimental: Male Wister rats (weighting 130-170 g.), one group being 5 rats, fasted overnight were used in this test.
as §2

[5] = 1 hour, 50mg/kg P.O., * significantly different from before administration (P<0.05)
[6] = 2 hours, 50mg/kg P.O., * significantly different from before administration (P<0.05)
[7] = 4 hours, 50mg/kg P.O., * significantly different from before administration (P<0.05)
[8] = 6 hours, 50mg/kg P.O., * significantly different from before administration (P<0.05)
[9] = before administration, group dosed 50mg/kg P.O.

Row | Compound | Inhibition, Writhings ([1]; 50mg/kg P.O.) | Inhibition (carrageenin-induced edema) ([2]; 25 mg/kg) | Inhibition, Permeability ([3]; 50mg/kg P.O.) | Inhibition (carrageenin-induced edema) ([2]; 50 mg/kg) | further results
1 | 2-acetoxy-5-oxo-2,3-dihydro-5H-thiazolo[3,2-b]isoquinoline [Example 9] | 82.9% | 53.4% |  |  | 
2 | 3-methyl-5-oxo-2,3-dihydro-5H-thiazolo[3,2-b]isoquinoline [Example 1] | 57.8% |  | 21.3% |  | Inhibition, Permeability ([3]; 25mg/kg P.O.): 26.2%; Inhibition, Writhings ([1]; 25mg/kg P.O.): 24.8%
3 | 5-oxo-2,3-dihydro-5H-thiazolo[3,2-b]isoquinoline-1,1-dioxide [Example 8] |  | 57.5% | 23.5% |  | 
4 | 5-oxo-5H-thiazolo[3,2-b]isoquinoline [Example 10] | 91.6% | 58.0% | 32.4% |  | 
5 | 5-oxo-5H-thiazolo[3,2-b]isoquinoline-1,1-dioxide [Example 5] |  | 55.3% | 36.0% | 67.2% | Inhibition, Permeability ([3]; 25mg/kg P.O.): 22.6%
6 | 6-oxo-2,3-dihydro-2H,6H-1,3-oxazino[3,2-b]isoquinoline [Example 2] | 14.4% | 41.7% | 20.1% | 71.2% | Inhibition, Permeability ([3]; 25mg/kg P.O.): 4.7%; Inhibition, Writhings ([1]; 25mg/kg P.O.): 22.6%
7 | 6-oxo-3,4-dihydro-2H,6H-1,3-thiazino[3,2-b]isoquinoline [Example 3] | 67.5% | 47.0% | 37.0% | 74.0% | 
8 | 6-oxo-3,4-dihydro-2H,6H-1,3-thiazino[3,2-b]isoquinoline-1,1-dioxide [Example 7] | 69.5% | 57.0% | 38.6% |  | 
9 | 6-oxo-3,4-dihydro-2H,6H-1,3-thiazino[3,2-b]isoquinoline-1-oxide [Example 6] | 28.8% | 57.1% | 37.1% |  | 
10 | Cc1c(N(C)C)c(=O)n(-c2ccccc2)n1C [Aminopyrine, reference compound] | 58.1% |  | 41.7% |  | Rectal temperature (mean±SE) [4, 5]: 37.92±0.09; Rectal temperature (mean±SE) [4, 6]: 37.49±0.10; Rectal temperature (mean±SE) [4, 7]: 37.39±0.07; Rectal temperature (mean±SE) [4, 8]: 37.76±0.19; Rectal temperature (mean±SE) [4, 9]: 39.24±0.14; Inhibition, Permeability ([3]; 25mg/kg P.O.): 28.5%; Inhibition, Writhings ([1]; 25mg/kg P.O.): 29.6%
11 | O=c1c2ccccc2cc2n1CC[S+]2[O-] (stereo not drawn) [Example 4, 5-oxo-2,3-dihydro-5H-thiazolo[3,2-b]isoquinoline-1-oxide] | 39.7% | 41.2% | 41.1% | 65.1% | Inhibition, Permeability ([3]; 25mg/kg P.O.): 22.1%; Inhibition, Writhings ([1]; 25mg/kg P.O.): 29.1%
12 | CCCCC1C(=O)N(c2ccccc2)N(c2ccccc2)C1=O [Phenylbutazone, reference compound] |  | 29.4% |  | 44.5% | 
13 | O=c1c2ccccc2cc2n1CCCS2 [Test No. 1] |  | 54.8% |  | 69.8% | Rectal temperature (mean±SE) [4, 5]: 38.72±0.13; Rectal temperature (mean±SE) [4, 6]: 38.20±0.15; Rectal temperature (mean±SE) [4, 7]: 37.39±0.23; Rectal temperature (mean±SE) [4, 8]: 37.44±0.32; Rectal temperature (mean±SE) [4, 9]: 39.26±0.19
14 | O=c1c2ccccc2cc2n1CCCS2(=O)=O [Test No. 2] |  |  |  |  | Rectal temperature (mean±SE) [4, 5]: 39.04±0.23; Rectal temperature (mean±SE) [4, 6]: 38.41±0.21; Rectal temperature (mean±SE) [4, 7]: 37.32±0.31; Rectal temperature (mean±SE) [4, 8]: 37.55±0.33; Rectal temperature (mean±SE) [4, 9]: 38.94±0.14
15 | CC1CSc2cc3ccccc3c(=O)n21 (stereo not drawn) [Test No. 3] |  |  |  |  | Number of death (Acute toxicity): 3/5
16 | O=c1c2ccccc2cc2n1CCC[S+]2[O-] (stereo not drawn) [Test No. 5] |  |  |  |  | Number of death (Acute toxicity): 3/5
17 | O=Cc1c2n(c(=O)c3ccccc13)CCCS2 [Test No. 11] |  | 45.9% |  |  | 
